In PubChem BioAssay AID1963846 (Molecular Pharmacology Branch, DTP, NCI, 2024):
“And” between values parts separate entries of the source, which are not always exact repeats. Equal values may be shown once.

Test system: 454973-116-R2-J3-PDC complex spheroid viability
Assay: Anticancer human tumor 454973-116-R2-J3-PDC patient-derived pancreatic carcinoma cell line growth inhibition [POLQ]
Settings: for viability, T/C: stronger effect = lower value
Protocol: Multicellular complex tumor spheroid response to Polymerase (POL) inhibitors (novobiocin, ART-558, RP6685) in combination with a variety of drugs and investigational agents in selected tumor cell lines
The POL inhibitors (novobiocin, ART-558, and RP6685) were evaluated both individually and in combination with standard of care and investigational anticancer small molecules within a complex spheroid model of solid tumors. . Complex spheroids include a stromal component modeled by human endothelial cells (HUVEC) and fibroblasts modeled by human mesenchymal stem cells (MSCs). The concentration ranges selected for each drug and investigational agent were based upon clinically achievable concentrations if the clinical Cmax of the agent was known.
Compounds. The drugs and investigational agents: novobiocin (NSC847541), ART-558 (NSC835418), RP-6685 (NSC848927), peposertib (NSC802822), ceralasertib (NSC780249), elimusertib (NSC800525), camonsertib (NSC841442), AZD-1390 (NSC803789), olaparib (NSC753686), talazoparib (NSC767125), rucaparib (NSC756644), sotorasib (NSC818433), MRTX-1133 (NSC836407), SN-38 (NSC673596), topotecan (NSC609699), epotoside (NSC141540), doxorubicin (NSC123127), gemcitabine (NSC613327), 5-fluorouracil (NSC19893), paclitaxel (NSC125973), vemurafenib (NSC761431), MSA-2 (NSC828583), SN-011 (NSC837082), adavosertib (NSC754352), prexasertib (NSC758257), carboplatin (NSC241240) and oxaliplatin (NSC266046), were obtained from the National Cancer Institute (NCI) Developmental Therapeutics Program Chemical Repository (21). The FDA-approved anticancer drug set is available from the Developmental Therapeutics Program at https://dtp.cancer.gov/organization/dscb/obtaining/. […] The stock solutions were prepared in dimethyl sulfoxide (DMSO, Sigma-Aldrich, St. Louis, MO, cat. D2650), except for the platinum compounds which were prepared in saline (Quality Biological, Gaithersburg, MD, cat. 114-055-101), at 800-fold the tested concentration and stored at -70 degrees C prior to their use. All drugs and investigational agents were tested over a range starting from a high concentration at or near the clinical Cmax and decreasing in half-log increments. If the clinical Cmax for an agent had not been determined, the highest concentration tested was 10 microM, except for SN-38, which was tested at a high concentration of 1 microM.
Cell Culture. All cells were maintained in an incubator at 37 degrees C and 5% CO2 with 95% humidity. The PDC lines were cultured according to standard operating procedures established by the NCI PDMR (https://pdmr.cancer.gov). Table 3 of the manuscript, lists the cell lines along with the number of the three cell types plated to form the mct-spheroids and media for tumor cell growth. After thawing, all PDC lines, except 997537-175-T-J1-PDC and 415267-285-R-J2-PDC, were cultured in Matrigel-coated flasks prepared with a working solution of 1X Ham's F-12 nutrient mix, without supplementation (Thermo Fisher Scientific, cat. 11765054), 100 U/mL penicillin-streptomycin (Thermo Fisher Scientific, cat. 15140122), and 2.5% Matrigel (Corning Inc., Corning, NY, cat. 354248) for the first three passages. The two PDC lines 997537-175-T-J1-PDC and 415267-285-R-J2-PDC were cultured on uncoated flasks. The 857933-349-R-J2-PDC line was cultured in 6C/Colon 1B media containing advanced DMEM/F-12 (Thermo Fisher Scientific, cat. 12634028), 10 mM HEPES (Thermo Fisher Scientific, cat. 15630080), 1X GlutaMAX supplement (Thermo Fisher Scientific, cat. 35050061), 0.1 mg/mL primocin (InvivoGen, San Diego, CA, cat. ant-pm-2), 10% defined fetal bovine serum, heat inactivated (HyClone Laboratories Inc., Logan, UT, cat. SH30070.03HI), 50% L-WRN conditioned media (ATCC, cat. CRL-3276), 1.25 mM N-Acetyl-L-cysteine (Sigma-Aldrich, cat. A9165), 10 mM nicotinamide (Sigma-Aldrich, cat. N0636), 1X B-27 supplement (Thermo Fisher Scientific, cat. 17504044), 1X N-2 supplement (Thermo Fisher Scientific, cat. […]
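Further: spheroids exposed to drugs for seven days before measurement.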
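Wherever viability, T/C is given: percent viability relative to DMSO vehicle control wells taken as 100%.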

CC1COCCN1c1cc(C2(S(C)(=N)=O)CC2)nc(-c2ccnc3[nH]ccc23)n1 (centres undefined) + Cc1cccc(N(C)C(=O)C2C(O)CCN2c2nc(C)cc(C(F)(F)F)c2C#N)c1
IC50 (curve of first compound, second compound 0.0316 µM): 6.39 µM
IC50 (curve of first compound, second compound 0.1 µM): 6.9 µM
IC50 (curve of first compound, second compound 0.316 µM): 5.75 µM
IC50 (curve of first compound, second compound 1 µM): 5.92 µM
IC50 (curve of first compound, second compound 3.16 µM): 6.6 µM
IC50 (curve of first compound, second compound 10 µM): 5.9 µM
viability, T/C (second compound 0.0316 µM, first compound 0.0316 µM): 111%
viability, T/C (second compound 0.0316 µM, first compound 0.1 µM): 105%
viability, T/C (second compound 0.0316 µM, first compound 0.316 µM): 103%
viability, T/C (second compound 0.0316 µM, first compound 1 µM): 108%
viability, T/C (second compound 0.0316 µM, first compound 3.16 µM): 85.2%
viability, T/C (second compound 0.0316 µM, first compound 10 µM): 27.4%
viability, T/C (second compound 0.1 µM, first compound 0.0316 µM): 111%
viability, T/C (second compound 0.1 µM, first compound 0.1 µM): 116%
viability, T/C (second compound 0.1 µM, first compound 0.316 µM): 105%
viability, T/C (second compound 0.1 µM, first compound 1 µM): 104%
viability, T/C (second compound 0.1 µM, first compound 3.16 µM): 75.2%
viability, T/C (second compound 0.1 µM, first compound 10 µM): 37.9%
viability, T/C (second compound 0.316 µM, first compound 0.0316 µM): 104%
viability, T/C (second compound 0.316 µM, first compound 0.1 µM): 107%
viability, T/C (second compound 0.316 µM, first compound 0.316 µM): 111%
viability, T/C (second compound 0.316 µM, first compound 1 µM): 110%
viability, T/C (second compound 0.316 µM, first compound 3.16 µM): 72.4%
viability, T/C (second compound 0.316 µM, first compound 10 µM): 29.4%
viability, T/C (second compound 1 µM, first compound 0.0316 µM): 111%
viability, T/C (second compound 1 µM, first compound 0.1 µM): 113%
viability, T/C (second compound 1 µM, first compound 0.316 µM): 114%
viability, T/C (second compound 1 µM, first compound 1 µM): 109%
viability, T/C (second compound 1 µM, first compound 3.16 µM): 75%
viability, T/C (second compound 1 µM, first compound 10 µM): 29.1%
viability, T/C (second compound 3.16 µM, first compound 0.0316 µM): 117%
viability, T/C (second compound 3.16 µM, first compound 0.1 µM): 112%
viability, T/C (second compound 3.16 µM, first compound 0.316 µM): 113%
viability, T/C (second compound 3.16 µM, first compound 1 µM): 96.3%
viability, T/C (second compound 3.16 µM, first compound 3.16 µM): 80.8%
viability, T/C (second compound 3.16 µM, first compound 10 µM): 33%
viability, T/C (second compound 10 µM, first compound 0.0316 µM): 114%
viability, T/C (second compound 10 µM, first compound 0.1 µM): 112%
viability, T/C (second compound 10 µM, first compound 0.316 µM): 106%
viability, T/C (second compound 10 µM, first compound 1 µM): 102%
viability, T/C (second compound 10 µM, first compound 3.16 µM): 74.6%
viability, T/C (second compound 10 µM, first compound 10 µM): 28.8%

CCc1cc2c(N3CCc4c(cc(Cn5ccnc5)cc4-c4cn(C)nc4C(F)(F)F)C3=O)cc(C)nc2c(OC)n1
viability, T/C (compound 0.0316 µM): 110% and 99.6% and 98.9%
viability, T/C (compound 0.1 µM): 92% and 79.7% and 87.1%
viability, T/C (compound 0.316 µM): 88.2% and 81.7% and 79.3%
viability, T/C (compound 1 µM): 89.3% and 74.5% and 69.2%
viability, T/C (compound 3.16 µM): 87% and 76.7% and 72.6%
viability, T/C (compound 10 µM): 71.6% and 58.8% and 56.6%
IC50 (curve of compound): > 10 µM
